# Source: patent US8563578B2, “Antitumor properties of NO modified protease inhibitors” (Onconox APS, priority 2008, dated 2013)
# Test system: B16 cells
# Assay: Viability (MTT) of B16 cells with Saq-NO2 plus Akt/PI-3K inhibitor
# Type: cell-based, mouse
# Conditions: B16, 24 h, 18.8 μM Saq-NO2 with Akt VI (50μg/ml) or 3-MA (1 mM)
# Method: Reduction of 3-4,5-dimethylthiazol-2-yl)-2,5-diphenyltetrazolium bromide (MTT) to formazan depends on mitochondrial activity of cultured cells, absorption of crystal violet dye correlates with the number of adherent, live cells, while the release of cytosolic lactate dehydrogenase (LDH) indicates the disruption of membrane integrity caracteristic for necrotic cells. The cells were seeded in flat-bottom 96-well plates in a final volume of 200 μl of culture medium containing different agents, and the assays were performed after 24 h incubation exactly as previously described (Mijatovic et al. 2004, Decker et al., 1998). Mitohondrial-dependent production of formazan and intensity of absorbed crystal violet by adherent cells were assessed by an automated microplate reader at 570 nm, while the pyruvate-mediated conversion of 2,4-dinitrophenylhydrazine into visible hydrazone precipitate in LDH assay was measured at 492 nm. The % of cytotoxicity as indicated by LDH release was calculated as: (E−C)/(T−C)×100, where E is the experimental absorbance of cell cultures, C is the control absorbance of cell-free culture medium, and T is the absorbance corresponding to the maximal (100%) LDH release of Triton-lysed cells.
# FIG. 6. […] (C) B16 cells (1×10^4 cells/well) were incubated for 24 h with 18.8 μM Saq-NO2 with or without Akt VI (50μg/ml) or 3-MA (1 mM) and cell viability was assessed by MTT. […]
compound,measurement,value
Cn1cnc(=N)c2[nH]cnc21 [3-MA],tumor cell viability on addition of inhibitor to Saq-NO2,further decrease of tumor cell viability
